Read-outs that look alike come from different tables or passages of the source.
How the values were obtained:
[1] = tested on: Pseudoperonospora cubensis; assay: Test 2: control effect against cucumber downy mildew; assay type: in vivo
Phytophthora infestans = assay: whole plant or invertebrate; assay type: in vivo; settings: for pest or weed control at 50 ppm: read-out: Test 1 preventive value, Measured, applied alone, 50 ppm; for Test 1 preventive value, Measured: applied alone
[2] = Phytophthora infestans, in Solanum lycopersicum
[3] = Phytophthora infestans, in Solanum lycopersicum, read-out: Test 1 Measured preventive value, component (b) alone, 0.4 ppm
[4] = Phytophthora infestans, in Solanum lycopersicum, read-out: Test 1 Measured preventive value, component (b) alone, 2 ppm
[5] = component (b) alone 0.08 ppm, average of three repeats
[6] = component (b) alone 0.4 ppm, average of three repeats
[7] = component (b) alone 2 ppm, average of three repeats

Fc1ccc(Oc2ccnc3cc(Cl)cc(Cl)c23)cc1 [Quinoxyfen] was tested, and the pest or weed control at 250 ppm ([1]; Pseudoperonospora cubensis, component (b) alone 250 ppm, read-out: Test 2 Measured) was 0%, the pest or weed control at 10 ppm ([1]; Pseudoperonospora cubensis, component (b) alone, 10 ppm, read-out: Test 2 Measured) was 0% and the pest or weed control at 50 ppm ([1]; Pseudoperonospora cubensis, component (b) alone, 50 ppm, read-out: Test 2 Measured) was 0%. The pest or weed control at 10 ppm (Phytophthora infestans; Phytophthora infestans, in Solanum lycopersicum, read-out: Test 1 preventive value, Measured, applied alone, 10 ppm) was 0%, the pest or weed control at 50 ppm (Phytophthora infestans; [2]) was 0% and the pest or weed control at 250 ppm (Phytophthora infestans; Phytophthora infestans, in Solanum lycopersicum, read-out: Test 1 preventive value, Measured, applied alone, 250 ppm) was 0%.
With COc1ccc(C(=CC(=O)N2CCOCC2)c2ccc(Cl)cc2)cc1OC [Dimethomorph] the “Test 2 Measured preventive value” ([1]; component (b) alone, 0.4 ppm) was 0, the “Test 2 Measured preventive value” ([1]; component (b) alone, 2 ppm) was 62.5 and the “Test 2 Measured preventive value” ([1]; component (b) alone, 10 ppm) was 95.5. The pest or weed control at 0.4 ppm (Phytophthora infestans; [3]) was 11.7% and the pest or weed control at 2 ppm (Phytophthora infestans; [4]) was 26.7%.
For COC(=O)NC(=S)Nc1ccccc1NC(=S)NC(=O)OC [Thiophanate-methyl], the pest or weed control at 20 ppm ([1]; Pseudoperonospora cubensis, component (b) alone 20 ppm, read-out: Test 2 Measured) was 0%, the pest or weed control at 100 ppm ([1]; Pseudoperonospora cubensis, component (b) alone 100 ppm, read-out: Test 2 Measured) was 0% and the pest or weed control at 500 ppm ([1]; Pseudoperonospora cubensis, component (b) alone 500 ppm, read-out: Test 2 Measured) was 2.5%. It also gave a pest or weed control at 20 ppm (Phytophthora infestans; Phytophthora infestans, in Solanum lycopersicum, read-out: Test 1 Measured, component (b) alone 20 ppm) of 0% and a pest or weed control at 500 ppm (Phytophthora infestans; Phytophthora infestans, in Solanum lycopersicum, read-out: Test 1 Measured, component (b) alone 500 ppm) of 60%.
With O=C(NCc1ncc(C(F)(F)F)cc1Cl)c1c(Cl)cccc1Cl [Fluopicolide] the “Test 2 Measured” value ([1]; component (b) alone, 0.4 ppm) was 5, the “Test 2 Measured” value ([1]; component (b) alone, 2 ppm) was 98.3 and the “Test 2 Measured” value ([1]; component (b) alone, 10 ppm) was 100. The “Test 1 Measured” value (Phytophthora infestans; component (b) alone, 0.4 ppm) was 0.0, the “Test 1 Measured” value (Phytophthora infestans; component (b) alone, 2 ppm) was 30.0 and the “Test 1 Measured” value (Phytophthora infestans; component (b) alone, 10 ppm) was 90.8.
Work on CON=C(C(=O)OC)c1ccccc1CON=C(C)c1cccc(C(F)(F)F)c1 [Trifloxystrobin] yielded a pest or weed control at 10 ppm ([1]; Pseudoperonospora cubensis, applied alone, 10 ppm, read-out: Test 2 preventive value, Measured) of 0%, a pest or weed control at 50 ppm ([1]; Pseudoperonospora cubensis, applied alone, 50 ppm, read-out: Test 2 preventive value, Measured) of 0% and a pest or weed control at 250 ppm ([1]; Pseudoperonospora cubensis, applied alone, 250 ppm, read-out: Test 2 preventive value, Measured) of 0%. For the same compound, the pest or weed control at 50 ppm (Phytophthora infestans; [2]) was 28.3%.
For COc1cc(C)c(C(=O)c2c(OC)ncc(Cl)c2C)c(OC)c1OC [Pyriofenone], the “Test 2 Measured” value ([1]; component (b) alone 250 ppm) was 10, the “Test 2 Measured” value ([1]; component (b) alone, 10 ppm) was 0 and the “Test 2 Measured” value ([1]; component (b) alone, 50 ppm) was 5. The “Test 1 preventive value, Measured” value (Phytophthora infestans; 10 ppm) was 0.0, the “Test 1 preventive value, Measured” value (Phytophthora infestans; 50 ppm) was 0.0 and the “Test 1 preventive value, Measured” value (Phytophthora infestans; 250 ppm) was 0.0.
In the case of Cc1ccc(C(C)NC(=O)[C@@H](NC(=O)OC(C)C)C(C)C)cc1 (some centres unmarked) [Iprovalicarb], the “Test 2 Measured” value ([1]; component (b) alone, 0.4 ppm) is reported as 0, the “Test 2 Measured” value ([1]; component (b) alone, 2 ppm) is reported as 0 and the “Test 2 Measured” value ([1]; component (b) alone, 10 ppm) is reported as 93.8. For the same compound, the “Test 1 Measured” value (Phytophthora infestans; component (b) alone, 0.4 ppm) was 15, the “Test 1 Measured” value (Phytophthora infestans; component (b) alone, 2 ppm) was 93.3 and the “Test 1 Measured” value (Phytophthora infestans; component (b) alone, 10 ppm) was 100.
In the case of Cc1c(Br)c2ccc(F)cc2n1S(=O)(=O)c1ncn(S(=O)(=O)N(C)C)n1 [Amisulbrom], the “Test 2 Measured” value ([1]; component (b) alone, 0.4 ppm) is reported as 27.5, the “Test 2 Measured” value ([1]; component (b) alone, 2 ppm) is reported as 98.8 and the “Test 2 Measured” value ([1]; component (b) alone, 10 ppm) is reported as 100. For the same compound, the “Test 1 Measured” value (Phytophthora infestans; component (b) alone, 0.4 ppm) was 60, the “Test 1 Measured” value (Phytophthora infestans; component (b) alone, 2 ppm) was 80 and the “Test 1 Measured” value (Phytophthora infestans; component (b) alone, 10 ppm) was 97.
With C#CCOc1ccc(CCNC(=O)C(OCC#C)c2ccc(Cl)cc2)cc1OC (centres unmarked) [Mandipropamid] the “Test 2 Measured preventive value” [1, 5] was 5, the “Test 2 Measured preventive value” [1, 6] was 89.5 and the “Test 2 Measured preventive value” [1, 7] was 95. For the same compound, the “Test 2 Measured” value ([1]; component (b) alone, 0.08 ppm) was 12, the “Test 2 Measured preventive value” ([1]; component (b) alone, 0.08 ppm) was 5 and the “Test 2 Measured” value ([1]; component (b) alone, 0.4 ppm) was 88.3. The “Test 2 Measured preventive value” ([1]; component (b) alone, 0.4 ppm) was 89.5, the “Test 2 Measured” value ([1]; component (b) alone, 2 ppm) was 95 and the “Test 2 Measured preventive value” ([1]; component (b) alone, 2 ppm) was 95. The “Test 1 Measured preventive value” (Phytophthora infestans; [5]) was 36.7, the “Test 1 Measured preventive value” (Phytophthora infestans; [6]) was 95.5 and the “Test 1 Measured preventive value” (Phytophthora infestans; [7]) was 100.0. The “Test 1 Measured” value (Phytophthora infestans; component (b) alone, 0.08 ppm) was 40.0, the “Test 1 Measured preventive value” (Phytophthora infestans; component (b) alone, 0.08 ppm) was 36.7 and the “Test 1 Measured” value (Phytophthora infestans; component (b) alone, 0.4 ppm) was 94.0. For the same compound, the “Test 1 Measured preventive value” (Phytophthora infestans; component (b) alone, 0.4 ppm) was 95.5, the “Test 1 Measured” value (Phytophthora infestans; component (b) alone, 2 ppm) was 100.0 and the “Test 1 Measured preventive value” (Phytophthora infestans; component (b) alone, 2 ppm) was 100.0.
Compound Cc1ccc(-c2c(Cl)nc(C#N)n2S(=O)(=O)N(C)C)cc1 [Cyazofamid] has a pest or weed control at 0.003 ppm ([1]; Pseudoperonospora cubensis, component (b) alone, 0.003 ppm, read-out: Test 2 Measured) of 0%, a pest or weed control at 0.08 ppm ([1]; Pseudoperonospora cubensis, component (b) alone, 0.08 ppm, read-out: Test 2 Measured) of 99% and a pest or weed control at 0.4 ppm ([1]; Pseudoperonospora cubensis, component (b) alone, 0.4 ppm, read-out: Test 2 Measured) of 100%. For the same compound, the “Test 2 Measured preventive value” ([1]; component (b) alone 0.003 ppm, average of three repeats) was 0, the “Test 2 Measured preventive value” [1, 5] was 99.5 and the “Test 2 Measured preventive value” [1, 6] was 100. The “Test 2 Measured preventive value” ([1]; component (b) alone, 0.003 ppm) was 0, the “Test 2 Measured preventive value” ([1]; component (b) alone, 0.08 ppm) was 99.5 and the “Test 2 Measured preventive value” ([1]; component (b) alone, 0.4 ppm) was 100. The pest or weed control at 0.08 ppm (Phytophthora infestans; Phytophthora infestans, in Solanum lycopersicum, read-out: Test 1 Measured preventive value, component (b) alone 0.08 ppm, average of three repeats) was 46.7%, the pest or weed control at 0.4 ppm (Phytophthora infestans; Phytophthora infestans, in Solanum lycopersicum, read-out: Test 1 Measured preventive value, component (b) alone 0.4 ppm, average of three repeats) was 95.5% and the pest or weed control at 2 ppm (Phytophthora infestans; Phytophthora infestans, in Solanum lycopersicum, read-out: Test 1 Measured preventive value, component (b) alone 2 ppm, average of three repeats) was 100%. The pest or weed control at 0.08 ppm (Phytophthora infestans; Phytophthora infestans, in Solanum lycopersicum, read-out: Test 1 Measured preventive value, component (b) alone, 0.08 ppm) was 46.7%, the pest or weed control at 0.4 ppm (Phytophthora infestans; [3]) was 95.5% and the pest or weed control at 2 ppm (Phytophthora infestans; [4]) was 100%. For the same compound, the pest or weed control at 0.08 ppm (Phytophthora infestans; Phytophthora infestans, in Solanum lycopersicum, read-out: Test 1 Measured, component (b) alone, 0.08 ppm) was 32%, the pest or weed control at 0.4 ppm (Phytophthora infestans; Phytophthora infestans, in Solanum lycopersicum, read-out: Test 1 Measured, component (b) alone, 0.4 ppm) was 96% and the pest or weed control at 2 ppm (Phytophthora infestans; Phytophthora infestans, in Solanum lycopersicum, read-out: Test 1 Measured, component (b) alone, 2 ppm) was 100%.

From US11903387B2 (priority 2016, dated 2024)
